Here are results for five compounds from PubChem BioAssay AID1963966 (Molecular Pharmacology Branch, DTP, NCI, 2024).

The assay concerns 935938-334-R-J1-PDC spheroids with HUVEC/MSC, viability. The assay can be described thus: Anticancer human tumor 935938-334-R-J1-PDC patient-derived small intestine adenocarcinoma cell line growth inhibition [PI3K]. To be noted: for viability, T/C: stronger effect = lower value. The gist of the method:
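Stroma-containing spheroids: tumor line, pooled-donor HUVEC, hMSC. Treatments: targeted agents with PI3K inhibitors. Dosing: clinically relevant, half-log spacing, 10 microM ceiling without known Cmax. Read-out: cell viability.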

The mark [1] stands for this setting: curve of first compound, second compound 0.0316 µM.
[2] abbreviates: curve of first compound, second compound 0.1 µM.
[3] abbreviates: curve of first compound, second compound 0.316 µM.
Where [4] appears, read: curve of first compound, second compound 1 µM.
The mark [5] stands for this setting: second compound 0.0316 µM, first compound 0.0316 µM.
Where [6] appears, read: second compound 0.0316 µM, first compound 0.1 µM.
The mark [7] stands for this setting: second compound 0.0316 µM, first compound 0.316 µM.
Setting [8] is: second compound 0.0316 µM, first compound 1 µM.
Where [9] appears, read: second compound 0.0316 µM, first compound 3.16 µM.
Where [10] appears, read: second compound 0.0316 µM, first compound 10 µM.
Where [11] appears, read: second compound 0.1 µM, first compound 0.0316 µM.
Setting [12] is: second compound 0.1 µM, first compound 0.1 µM.
[13] abbreviates: second compound 0.1 µM, first compound 0.316 µM.
The mark [14] stands for this setting: second compound 0.1 µM, first compound 1 µM.
Where [15] appears, read: second compound 0.1 µM, first compound 3.16 µM.
Where [16] appears, read: second compound 0.1 µM, first compound 10 µM.
[17] abbreviates: second compound 0.316 µM, first compound 0.0316 µM.
The mark [18] stands for this setting: second compound 0.316 µM, first compound 0.1 µM.
Setting [19] is: second compound 0.316 µM, first compound 0.316 µM.
[20] abbreviates: second compound 0.316 µM, first compound 1 µM.
The mark [21] stands for this setting: second compound 0.316 µM, first compound 3.16 µM.
[22] abbreviates: second compound 0.316 µM, first compound 10 µM.
Setting [23] is: second compound 1 µM, first compound 0.0316 µM.
Where [24] appears, read: second compound 1 µM, first compound 0.1 µM.
[25] abbreviates: second compound 1 µM, first compound 0.316 µM.
Setting [26] is: second compound 1 µM, first compound 1 µM.
The mark [27] stands for this setting: second compound 1 µM, first compound 3.16 µM.
Setting [28] is: second compound 1 µM, first compound 10 µM.

Structures are written as SMILES.
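Also: compound exposure lasted seven days before viability was read.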
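For viability, T/C in this document: percent of vehicle DMSO treated spheroid viability so 100% = untreated.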

In general, IC50 refers to the concentration at which inhibition is half-maximal. The viability, T/C is the result in the treated group divided by that in the control group, in per cent. For the compound `C[C@@H](NC(=O)c1ncnc(N)c1Cl)c1ncc(C(=O)Nc2cc(C(F)(F)F)c(Cl)cn2)s1` + Cc1nc(NC(=O)N2CCCC2C(N)=O)sc1-c1ccnc(C(C)(C)C(F)(F)F)c1, the concentration for half-maximal inhibition (IC50) reads like this: under setting [1], more than 10000 nM; under setting [2], more than 10000 nM; under setting [3], more than 10000 nM; under setting [4], more than 10000 nM; (curve of first compound, second compound 3.16 µM) 6670 nM; (curve of first compound, second compound 10 µM) 272 nM. Besides, the viability, T/C was 112% under setting [5]; 100% under setting [6]; 98.7% under setting [7]; 88.1% under setting [8]; 90.7% under setting [9]; 81.6% under setting [10]. For the same compound, the viability, T/C under setting [11] is 94.1%; the viability, T/C under setting [12] is 108%; the viability, T/C under setting [13] was 101%; the viability, T/C under setting [14] was 115%; the viability, T/C under setting [15] is 95.5%; the viability, T/C under setting [16] is 68.6%. The viability, T/C runs as follows: under setting [17], 104%; under setting [18], 108%; under setting [19], 109%; under setting [20], 87.8%; under setting [21], 89.8%; under setting [22], 78%. Further, the viability, T/C reads like this: under setting [23], 105%; under setting [24], 80.4%; under setting [25], 87.4%; under setting [26], 89.5%; under setting [27], 79.9%; under setting [28], 68.2%. Also, the viability, T/C (second compound 3.16 µM, first compound 0.0316 µM) is 53.6%; the viability, T/C (second compound 3.16 µM, first compound 0.1 µM) is 55.6%; the viability, T/C (second compound 3.16 µM, first compound 0.316 µM) was 79.6%; the viability, T/C (second compound 3.16 µM, first compound 1 µM) is 62%; the viability, T/C (second compound 3.16 µM, first compound 3.16 µM) was 61.9%; the viability, T/C (second compound 3.16 µM, first compound 10 µM) was 31.2%. The viability, T/C was 50.6% (second compound 10 µM, first compound 0.0316 µM); 63.9% (second compound 10 µM, first compound 0.1 µM); 41.4% (second compound 10 µM, first compound 0.316 µM); 44.5% (second compound 10 µM, first compound 1 µM); 37.2% (second compound 10 µM, first compound 3.16 µM); 22.8% (second compound 10 µM, first compound 10 µM).
Regarding `CC(C)NCC(C(=O)N1CCN(c2ncnc3c2C(C)CC3O)CC1)c1ccc(Cl)cc1` (stereo not drawn) + CC(Nc1ccc2c(c1)OCCn1cc(N3C(=O)OCC3C(F)F)nc1-2)C(N)=O, the 50% inhibitory concentration (IC50) (curve of first compound, second compound 0.00316 µM) was determined as 1690 nM; the IC50 (curve of first compound, second compound 0.01 µM) was determined as 3320 nM; the IC50 under setting [1] was determined as 811 nM; the IC50 under setting [2] amounted to 651 nM; the concentration for half-maximal inhibition (IC50) under setting [3] was 724 nM; the 50% inhibitory concentration (IC50) under setting [4] was determined as 328 nM. The viability, T/C runs as follows: (second compound 0.00316 µM, first compound 0.0316 µM) 76.6%; (second compound 0.00316 µM, first compound 0.1 µM) 96.7%; (second compound 0.00316 µM, first compound 0.316 µM) 77.9%; (second compound 0.00316 µM, first compound 1 µM) 58%; (second compound 0.00316 µM, first compound 3.16 µM) 41.5%; (second compound 0.00316 µM, first compound 10 µM) 36.1%. For the same compound, the viability, T/C (second compound 0.01 µM, first compound 0.0316 µM) was 47.5%; the viability, T/C (second compound 0.01 µM, first compound 0.1 µM) was 75.7%; the viability, T/C (second compound 0.01 µM, first compound 0.316 µM) was 85%; the viability, T/C (second compound 0.01 µM, first compound 1 µM) is 65.4%; the viability, T/C (second compound 0.01 µM, first compound 3.16 µM) was 51.1%; the viability, T/C (second compound 0.01 µM, first compound 10 µM) is 28.6%. For the same compound, the viability, T/C reads like this: under setting [5], 53.1%; under setting [6], 76.5%; under setting [7], 65.5%; under setting [8], 46.5%; under setting [9], 35.3%; under setting [10], 30%. Moreover, the viability, T/C under setting [11] was 94.9%; the viability, T/C under setting [12] is 84.1%; the viability, T/C under setting [13] is 56.1%; the viability, T/C under setting [14] is 44%; the viability, T/C under setting [15] is 44%; the viability, T/C under setting [16] was 28.3%. Besides, the viability, T/C runs as follows: under setting [17], 55.5%; under setting [18], 75.7%; under setting [19], 68.3%; under setting [20], 43.6%; under setting [21], 23.4%; under setting [22], 24.8%. The viability, T/C reads like this: under setting [23], 35.1%; under setting [24], 52.9%; under setting [25], 63.5%; under setting [26], 34.1%; under setting [27], 19.8%; under setting [28], 28.6%.
`C=CC(=O)N1CCN(c2nc(=O)n(-c3c(C)ccnc3C(C)C)c3nc(-c4c(O)cccc4F)c(F)cc23)C(C)C1` (stereo not drawn): the viability, T/C (compound 0.1 µM) was 95.8% [middle of 4 runs]; the viability, T/C (compound 1 µM) is 111% [middle of 4 runs]; the viability, T/C (compound 10 µM) is 92.7% [middle of 4 runs]. In addition, under “curve of compound”, the IC50 is more than 10000 nM.
Consider `CC1(C)CCC(CN2CCN(c3ccc(C(=O)NS(=O)(=O)c4ccc(NCC5CCOCC5)c([N+](=O)[O-])c4)c(Oc4cnc5[nH]ccc5c4)c3)CC2)=C(c2ccc(Cl)cc2)C1`, for which the viability, T/C (compound 0.0316 µM) was 98.9% [middle of 4 runs]; the viability, T/C (compound 0.1 µM) was 88.2% [middle of 4 runs]; the viability, T/C (compound 3.16 µM) is 93.3% [middle of 4 runs].
Take `COc1c(OCCCN2CCOCC2)ccc2c3n(c(=NC(=O)c4cnc(N)nc4)nc12)CCN3`: the viability, T/C by setting is: (compound 0.00316 µM) 87.7% [middle of 8 runs]; (compound 0.01 µM) 93.9% [middle of 8 runs]; (compound 0.0316 µM) 82.8% [middle of 8 runs]; (compound 0.1 µM) 52.5% [middle of 8 runs]; (compound 0.316 µM) 38.6% [middle of 8 runs]; (compound 1 µM) 39% [middle of 8 runs]. Also, the IC50 (compound alone, run of 04/25/2023) is 120 nM [middle of 8 runs].
